Assay: Ex vivo biodistribution
Type: in vivo, wild-type FVB/NJ mice
Method: To further understand the pharmacokinetics of [^18F]2, ex vivo biodistribution was performed with different groups of mice with and without co-administration of 2. Animals were sacrificed at 5 min, 10 min and 120 min post-injection of [^18F]2. Vital organs and tissues were collected and uptake of the [^18F]2 was measured as SUV after counting the radioactivity in each harvested tissue. […] Additionally, observed higher uptake of [^18F]2 in pancreas could potentially be extended to beta cell mass imaging as a separate study. […] Therefore, it would be valuable to evaluate PET [^18F]2 in pathological conditions to finally evaluate its selectivity, binding affinity, and retention in vivo in the presence and absence of self-blocking as a future study.
Uptake of PET probe [^18F]2 (1.40 ± 0.61 MBq) was assessed with and without co-administration of 2 in 10–13-week-old wild-type FVB/NJ mice (The Jackson Laboratory, Bar Harbor, ME) after tail vein injection followed by PET imaging at 5 min, 10 min, 15 min, 20 min, 25 min, 30 min, 40 min, 50 min, 60 min and 120 min post injection. Additionally, ex vivo biodistribution was performed at 5 min, 10 min and 120 min post tail vein injection. To prepare [^18F]2 formulation for injection, 0.76 ± 0.48 µg (2.01 ± 1.27 nmol) of [^18F]2 was formulated in 10% ethanol/ 90% isotonic saline. For the blocking experiment, 20.21 ± 1.63 µg (53.75 ± 4.33 nmol) of 2 in DMSO was added to [^18F]2 (Am of 87.27 ± 77.26 (n = 13) GBq/µmole, having 0.46 ± 0.31 µg or 1.23 ± 0.83 nmol of nonradioactive 2 in it) in the final formulation volume of ~ 100 µL. This study had 12 wild type FVB/NJ male mice with body weight 31.8 ± 2.7 g and 10 wild type FVB/NJ female mice with body weight 27.0 ± 3.6 g at the time of imaging. All the animals were anesthetized for tail vein injection and PET imaging using an induction dose of 3% isoflurane and a maintenance dose of 2–3% isoflurane, which was administered via isoflurane vaporizer. All anesthetized animals were kept warm during imaging using a heat supported imaging chamber. For ex vivo biodistribution studies, animals were sacrificed at 5 min, 10 min and 120 min post-injection by cervical dislocation and tissues were harvested for gamma counting. For PET imaging studies, each animal underwent a 60 min dynamic PET scan (Framing Sequence: 1 × 10 s, 4 × 15 s, 8 × 30 s, 5 × 60 s, 4 × 300 s, 3 × 600 s) immediately post injection followed by 10 min static PET scan at 120 min post-injection on small animal micro-PET/X-ray system, Genesys 4 (Sofie BioSystems, Dulles, VA, USA). The PET images were reconstructed using Genesys 4 imaging software installed on the imaging system. The obtained PET images were visualized and analyzed using image analysis software, “Amide's a medical image data examiner-AMIDE”[53]. PET images were normalized to the standardized uptake value (SUV) where; SUV=ConcentrationofdoseintissueμCi/g×Weightoftheanimal(g)/Injecteddose(μCi).

O=C(Nc1cnccc1-c1ccc([18F])cc1)c1ccnc(NC(=O)C2CC2)c1 [[^18F]2]
SUV, Average ± SD (Adipose, 5 min post-injection, [^18F]2 + 20 µg of 2): 0.33 ± 0.05
SUV, Average ± SD (Adipose, 5 min post-injection, [^18F]2 alone): 0.29 ± 0.09
SUV, Average ± SD (Adipose, 10 min post-injection, [^18F]2 + 20 µg of 2): 0.38 ± 0.05
SUV, Average ± SD (Adipose, 10 min post-injection, [^18F]2 alone): 0.24 ± 0.07
SUV, Average ± SD (Adipose, 120 min post-injection, [^18F]2 + 20 µg of 2): 0.25 ± 0.05
SUV, Average ± SD (Adipose, 120 min post-injection, [^18F]2 alone): 0.14 ± 0.04
SUV, Average ± SD (Bladder, 5 min post-injection, [^18F]2 + 20 µg of 2): 0.71 ± 0.09
SUV, Average ± SD (Bladder, 5 min post-injection, [^18F]2 alone): 0.40 ± 0.12
SUV, Average ± SD (Bladder, 10 min post-injection, [^18F]2 + 20 µg of 2): 0.84 ± 0.13
SUV, Average ± SD (Bladder, 10 min post-injection, [^18F]2 alone): 0.48 ± 0.08
SUV, Average ± SD (Bladder, 120 min post-injection, [^18F]2 + 20 µg of 2): 0.73 ± 0.54
SUV, Average ± SD (Bladder, 120 min post-injection, [^18F]2 alone): 1.58 ± 1.90
SUV, Average ± SD (Blood, 5 min post-injection, [^18F]2 + 20 µg of 2): 0.93 ± 0.14
SUV, Average ± SD (Blood, 5 min post-injection, [^18F]2 alone): 0.38 ± 0.18
SUV, Average ± SD (Blood, 10 min post-injection, [^18F]2 + 20 µg of 2): 0.79 ± 0.12
SUV, Average ± SD (Blood, 10 min post-injection, [^18F]2 alone): 0.34 ± 0.02
SUV, Average ± SD (Blood, 120 min post-injection, [^18F]2 + 20 µg of 2): 0.43 ± 0.07
SUV, Average ± SD (Blood, 120 min post-injection, [^18F]2 alone): 0.15 ± 0.07
SUV, Average ± SD (Bone, 5 min post-injection, [^18F]2 + 20 µg of 2): 0.48 ± 0.02
SUV, Average ± SD (Bone, 5 min post-injection, [^18F]2 alone): 0.30 ± 0.14
SUV, Average ± SD (Bone, 10 min post-injection, [^18F]2 + 20 µg of 2): 0.50 ± 0.03
SUV, Average ± SD (Bone, 10 min post-injection, [^18F]2 alone): 0.29 ± 0.04
SUV, Average ± SD (Bone, 120 min post-injection, [^18F]2 + 20 µg of 2): 1.22 ± 0.31
SUV, Average ± SD (Bone, 120 min post-injection, [^18F]2 alone): 1.08 ± 0.33
SUV, Average ± SD (CN (caudate nucleus), 5 min post-injection, [^18F]2 + 20 µg of 2): 0.65 ± 0.04
SUV, Average ± SD (CN (caudate nucleus), 5 min post-injection, [^18F]2 alone): 0.87 ± 0.48
SUV, Average ± SD (CN (caudate nucleus), 10 min post-injection, [^18F]2 + 20 µg of 2): 0.45 ± 0.05
SUV, Average ± SD (CN (caudate nucleus), 10 min post-injection, [^18F]2 alone): 0.34 ± 0.07
SUV, Average ± SD (CN (caudate nucleus), 120 min post-injection, [^18F]2 + 20 µg of 2): 0.19 ± 0.03
SUV, Average ± SD (CN (caudate nucleus), 120 min post-injection, [^18F]2 alone): 0.06 ± 0.02
SUV, Average ± SD (Heart, 5 min post-injection, [^18F]2 + 20 µg of 2): 1.38 ± 0.11
SUV, Average ± SD (Heart, 5 min post-injection, [^18F]2 alone): 0.69 ± 0.36
SUV, Average ± SD (Heart, 10 min post-injection, [^18F]2 + 20 µg of 2): 1.14 ± 0.16
SUV, Average ± SD (Heart, 10 min post-injection, [^18F]2 alone): 0.45 ± 0.02
SUV, Average ± SD (Heart, 120 min post-injection, [^18F]2 + 20 µg of 2): 0.48 ± 0.12
SUV, Average ± SD (Heart, 120 min post-injection, [^18F]2 alone): 0.16 ± 0.08
SUV, Average ± SD (Left kidney, 5 min post-injection, [^18F]2 + 20 µg of 2): 2.47 ± 0.30
SUV, Average ± SD (Left kidney, 5 min post-injection, [^18F]2 alone): 1.37 ± 0.69
SUV, Average ± SD (Left kidney, 10 min post-injection, [^18F]2 + 20 µg of 2): 2.27 ± 0.32
SUV, Average ± SD (Left kidney, 10 min post-injection, [^18F]2 alone): 1.01 ± 0.16
SUV, Average ± SD (Left kidney, 120 min post-injection, [^18F]2 + 20 µg of 2): 2.18 ± 0.51
SUV, Average ± SD (Left kidney, 120 min post-injection, [^18F]2 alone): 0.54 ± 0.06
SUV, Average ± SD (Lung, 5 min post-injection, [^18F]2 + 20 µg of 2): 1.17 ± 0.15
SUV, Average ± SD (Lung, 5 min post-injection, [^18F]2 alone): 0.65 ± 0.35
SUV, Average ± SD (Lung, 10 min post-injection, [^18F]2 + 20 µg of 2): 1.08 ± 0.15
SUV, Average ± SD (Lung, 10 min post-injection, [^18F]2 alone): 0.48 ± 0.03
SUV, Average ± SD (Lung, 120 min post-injection, [^18F]2 + 20 µg of 2): 0.52 ± 0.09
SUV, Average ± SD (Lung, 120 min post-injection, [^18F]2 alone): 0.18 ± 0.07
SUV, Average ± SD (Muscle, 5 min post-injection, [^18F]2 + 20 µg of 2): 0.90 ± 0.17
SUV, Average ± SD (Muscle, 5 min post-injection, [^18F]2 alone): 0.47 ± 0.23
SUV, Average ± SD (Muscle, 10 min post-injection, [^18F]2 + 20 µg of 2): 0.72 ± 0.09
SUV, Average ± SD (Muscle, 10 min post-injection, [^18F]2 alone): 0.43 ± 0.03
SUV, Average ± SD (Muscle, 120 min post-injection, [^18F]2 + 20 µg of 2): 0.32 ± 0.06
SUV, Average ± SD (Muscle, 120 min post-injection, [^18F]2 alone): 0.11 ± 0.04
SUV, Average ± SD (Pancreas, 5 min post-injection, [^18F]2 + 20 µg of 2): 1.83 ± 0.16
SUV, Average ± SD (Pancreas, 5 min post-injection, [^18F]2 alone): 1.27 ± 0.56
SUV, Average ± SD (Pancreas, 10 min post-injection, [^18F]2 + 20 µg of 2): 1.53 ± 0.15
SUV, Average ± SD (Pancreas, 10 min post-injection, [^18F]2 alone): 0.85 ± 0.23
SUV, Average ± SD (Pancreas, 120 min post-injection, [^18F]2 + 20 µg of 2): 0.57 ± 0.15
SUV, Average ± SD (Pancreas, 120 min post-injection, [^18F]2 alone): 0.22 ± 0.09
SUV, Average ± SD (Right kidney, 5 min post-injection, [^18F]2 + 20 µg of 2): 2.46 ± 0.18
SUV, Average ± SD (Right kidney, 5 min post-injection, [^18F]2 alone): 1.34 ± 0.69
SUV, Average ± SD (Right kidney, 10 min post-injection, [^18F]2 + 20 µg of 2): 2.30 ± 0.35
SUV, Average ± SD (Right kidney, 10 min post-injection, [^18F]2 alone): 0.97 ± 0.12
SUV, Average ± SD (Right kidney, 120 min post-injection, [^18F]2 + 20 µg of 2): 2.30 ± 0.81
SUV, Average ± SD (Right kidney, 120 min post-injection, [^18F]2 alone): 0.48 ± 0.15
SUV, Average ± SD (Skin, 5 min post-injection, [^18F]2 + 20 µg of 2): 0.66 ± 0.16
SUV, Average ± SD (Skin, 5 min post-injection, [^18F]2 alone): 0.46 ± 0.17
SUV, Average ± SD (Skin, 10 min post-injection, [^18F]2 + 20 µg of 2): 0.66 ± 0.10
SUV, Average ± SD (Skin, 10 min post-injection, [^18F]2 alone): 0.52 ± 0.16
SUV, Average ± SD (Skin, 120 min post-injection, [^18F]2 + 20 µg of 2): 0.71 ± 0.66
SUV, Average ± SD (Skin, 120 min post-injection, [^18F]2 alone): 0.10 ± 0.04
SUV, Average ± SD (Spleen, 5 min post-injection, [^18F]2 + 20 µg of 2): 1.00 ± 0.05
SUV, Average ± SD (Spleen, 5 min post-injection, [^18F]2 alone): 0.74 ± 0.27
SUV, Average ± SD (Spleen, 10 min post-injection, [^18F]2 + 20 µg of 2): 1.14 ± 0.50
SUV, Average ± SD (Spleen, 10 min post-injection, [^18F]2 alone): 0.55 ± 0.20
SUV, Average ± SD (Spleen, 120 min post-injection, [^18F]2 + 20 µg of 2): 0.44 ± 0.11
SUV, Average ± SD (Spleen, 120 min post-injection, [^18F]2 alone): 0.15 ± 0.07
SUV, Average ± SD (Stomach, 5 min post-injection, [^18F]2 + 20 µg of 2): 0.86 ± 0.32
SUV, Average ± SD (Stomach, 5 min post-injection, [^18F]2 alone): 0.80 ± 0.24
SUV, Average ± SD (Stomach, 10 min post-injection, [^18F]2 + 20 µg of 2): 0.97 ± 0.63
SUV, Average ± SD (Stomach, 10 min post-injection, [^18F]2 alone): 0.53 ± 0.09
SUV, Average ± SD (Stomach, 120 min post-injection, [^18F]2 + 20 µg of 2): 1.28 ± 1.08
SUV, Average ± SD (Stomach, 120 min post-injection, [^18F]2 alone): 0.68 ± 0.41
SUV, Average ± SD (Urine, 5 min post-injection, [^18F]2 + 20 µg of 2): 0.20 ± 0.29
SUV, Average ± SD (Urine, 5 min post-injection, [^18F]2 alone): 0.10 ± 0.10
SUV, Average ± SD (Urine, 10 min post-injection, [^18F]2 + 20 µg of 2): 0.85 ± 0.79
SUV, Average ± SD (Urine, 10 min post-injection, [^18F]2 alone): 1.78 ± 1.21
SUV, Average ± SD (Urine, 120 min post-injection, [^18F]2 + 20 µg of 2): 3.20 ± 2.32
SUV, Average ± SD (Urine, 120 min post-injection, [^18F]2 alone): 20.55 ± 8.76
SUV, Average ± SD (liver, 5 min post-injection, [^18F]2 + 20 µg of 2): 8.37 ± 0.36
SUV, Average ± SD (liver, 5 min post-injection, [^18F]2 alone): 11.85 ± 0.33
SUV, Average ± SD (liver, 10 min post-injection, [^18F]2 + 20 µg of 2): 7.85 ± 0.41
SUV, Average ± SD (liver, 10 min post-injection, [^18F]2 alone): 14.43 ± 1.48
SUV, Average ± SD (liver, 120 min post-injection, [^18F]2 + 20 µg of 2): 4.00 ± 0.22
SUV, Average ± SD (liver, 120 min post-injection, [^18F]2 alone): 3.08 ± 1.44

— article PMC11237012, “Synthesis and preliminary evaluation of novel PET probes for GSK-3 imaging” (Scientific Reports, 2024)
